pIC50: −log10 of the molar value.
Columns and labels:
[1] = biological target: PIK3CA (human) (UniProt P42336); assay: Enzyme Assay
[2] = biological target: PIK3CG (human) (UniProt P48736); assay: Inhibition of PIK3CG Kinase Activity
Chain of PIK3CG (human) (P48736 whole entry, looked up): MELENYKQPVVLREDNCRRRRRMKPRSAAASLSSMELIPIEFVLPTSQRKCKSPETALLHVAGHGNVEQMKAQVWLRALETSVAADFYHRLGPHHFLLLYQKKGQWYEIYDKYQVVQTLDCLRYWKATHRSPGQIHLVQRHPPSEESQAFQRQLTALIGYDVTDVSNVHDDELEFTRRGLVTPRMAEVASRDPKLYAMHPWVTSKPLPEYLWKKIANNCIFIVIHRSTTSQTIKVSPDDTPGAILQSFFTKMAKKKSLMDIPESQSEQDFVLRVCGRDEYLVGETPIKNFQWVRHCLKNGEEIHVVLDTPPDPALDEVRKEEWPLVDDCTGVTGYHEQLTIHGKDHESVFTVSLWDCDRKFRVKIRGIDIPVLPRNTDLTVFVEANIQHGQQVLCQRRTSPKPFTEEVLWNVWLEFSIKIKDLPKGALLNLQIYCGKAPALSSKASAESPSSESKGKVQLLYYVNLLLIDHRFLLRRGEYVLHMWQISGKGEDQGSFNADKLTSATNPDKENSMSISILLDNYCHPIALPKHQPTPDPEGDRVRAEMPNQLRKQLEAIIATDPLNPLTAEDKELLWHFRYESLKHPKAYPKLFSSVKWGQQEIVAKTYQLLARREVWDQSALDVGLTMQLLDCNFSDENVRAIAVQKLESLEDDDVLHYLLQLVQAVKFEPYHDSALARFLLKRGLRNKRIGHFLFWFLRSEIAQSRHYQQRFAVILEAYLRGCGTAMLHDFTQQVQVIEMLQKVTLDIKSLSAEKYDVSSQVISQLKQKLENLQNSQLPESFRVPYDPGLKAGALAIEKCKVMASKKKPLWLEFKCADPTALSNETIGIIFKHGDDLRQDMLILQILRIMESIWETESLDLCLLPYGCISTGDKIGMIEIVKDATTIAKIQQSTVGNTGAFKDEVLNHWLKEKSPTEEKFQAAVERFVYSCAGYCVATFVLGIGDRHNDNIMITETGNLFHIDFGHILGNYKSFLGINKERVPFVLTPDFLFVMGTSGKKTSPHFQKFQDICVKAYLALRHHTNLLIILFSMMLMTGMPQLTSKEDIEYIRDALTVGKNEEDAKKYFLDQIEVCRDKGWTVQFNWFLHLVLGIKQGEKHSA

Chain of PIK3CA (human) (P42336 whole entry, looked up): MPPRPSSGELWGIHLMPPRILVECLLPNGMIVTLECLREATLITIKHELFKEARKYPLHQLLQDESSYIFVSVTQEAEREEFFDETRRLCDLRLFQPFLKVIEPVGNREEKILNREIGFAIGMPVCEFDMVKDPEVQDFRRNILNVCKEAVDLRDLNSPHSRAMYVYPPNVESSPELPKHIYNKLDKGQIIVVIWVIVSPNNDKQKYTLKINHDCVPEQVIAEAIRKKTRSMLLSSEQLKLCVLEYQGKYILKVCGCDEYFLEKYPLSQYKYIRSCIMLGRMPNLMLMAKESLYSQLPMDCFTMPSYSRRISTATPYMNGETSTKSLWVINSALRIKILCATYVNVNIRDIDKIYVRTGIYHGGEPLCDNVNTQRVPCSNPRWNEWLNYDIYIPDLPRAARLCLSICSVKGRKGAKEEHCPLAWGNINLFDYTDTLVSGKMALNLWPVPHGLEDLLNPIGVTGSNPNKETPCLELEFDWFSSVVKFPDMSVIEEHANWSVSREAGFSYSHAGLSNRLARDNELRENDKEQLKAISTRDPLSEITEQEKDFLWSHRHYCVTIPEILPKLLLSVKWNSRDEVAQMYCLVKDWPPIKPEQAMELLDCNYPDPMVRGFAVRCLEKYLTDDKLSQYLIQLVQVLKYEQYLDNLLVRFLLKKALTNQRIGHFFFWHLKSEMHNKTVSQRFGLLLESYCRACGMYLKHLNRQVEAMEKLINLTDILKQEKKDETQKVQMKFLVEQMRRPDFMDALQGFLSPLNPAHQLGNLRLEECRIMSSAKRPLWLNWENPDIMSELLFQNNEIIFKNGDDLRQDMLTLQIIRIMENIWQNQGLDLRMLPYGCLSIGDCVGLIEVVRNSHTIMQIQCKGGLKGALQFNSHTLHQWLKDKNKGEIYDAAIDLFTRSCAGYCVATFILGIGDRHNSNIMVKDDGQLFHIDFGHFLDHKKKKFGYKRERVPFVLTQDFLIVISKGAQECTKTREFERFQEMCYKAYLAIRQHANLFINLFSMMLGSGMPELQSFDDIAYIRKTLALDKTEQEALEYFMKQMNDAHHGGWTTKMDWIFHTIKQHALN

Row | SMILES | pIC50 [1] | pIC50 [2]
1 | Cn1c(-c2ccc(-c3ccc(CN)cc3)cc2)c(/C=C2\Oc3cc(O)cc(O)c3C2=O)c2ccccc21 | 5.54 | 5.02
2 | COc1ccc2[nH]cc(/C=C3\Oc4cc(O)cc(-c5ccccc5)c4C3=O)c2c1 | 6.91 | 
3 | Cc1cccc2c1c(/C=C1\Oc3cc(O)cc(O)c3C1=O)c(-c1ccccn1)n2C |  | 4.96
4 | O=C1C(=Cc2c(-c3ccccc3)n(Cc3cccnc3)c3ccccc23)Oc2cc(O)cc(O)c21 |  | 4.96
5 | O=C1C(=Cc2c[nH]c3cc(Cl)ccc23)Oc2cc(O)cc(O)c21 |  | 5.00
6 | COc1ccc2[nH]cc(/C=C3\Oc4c(OC)cccc4C3=O)c2c1 | 5.01 | 
7 | COc1ccc2[nH]cc(/C=C3\Oc4cc(S(=O)(=O)OC(F)(F)F)ccc4C3=O)c2c1 |  | 5.03
8 | CCc1cc(OC)cc2c(/C=C3\Oc4cc(O)cc(O)c4C3=O)cn(CCCC#N)c12 | 7.20 | 
9 | Cn1cc(C=C2Oc3cc(O)cc(O)c3C2=O)c2c(Cl)cccc21 |  | 5.00
10 | Cc1ccc2c(c1)C(=O)/C(=C/c1c(C)[nH]c3ccc([N+](=O)[O-])cc13)S2 | 5.04 | 
11 | CCc1cc(O)cc2c1C(=O)/C(=C/c1c[nH]c3ccc(OC)cc13)O2 | 6.88 | 
12 | Cc1ccc2c(c1)C(=O)/C(=C/c1c(-c3ccc4ccccc4c3)[nH]c3ccccc13)S2 | 4.92 | 
13 | COc1ccc2[nH]cc(/C=C3\Oc4cc(O)cc(Br)c4C3=O)c2c1 | 6.92 | 
14 | CNC(=O)Nc1ccc2c(c1)O/C(=C\c1cn(CCCN(C)C)c3ccc(OC)cc13)C2=O | 5.00 | 
15 | O=C1C(=Cc2c(-c3ccccc3)n(Cc3ccncc3)c3ccccc23)Oc2cc(O)cc(O)c21 |  | 4.96
16 | Cn1cc(/C=C2/Oc3cc(O)cc(O)c3C2=O)c2c(-c3ccccc3)cccc21.Cn1cc(/C=C2\Oc3cc(O)cc(O)c3C2=O)c2c(-c3ccccc3)cccc21 | 6.58 | 

The remaining lines, values ahead:

Row | pIC50 [1] | pIC50 [2] | SMILES
17 |  | 5.30 | COc1ccc2c(c1)c(/C=C1\Oc3ccc(Br)cc3C1=O)cn2CCCN(C)C
18 | 6.19 | 5.38 | COc1ccc2c(c1)c(C=C1Oc3cccc(O)c3C1=O)c(C)n2CCN1CCOCC1
19 |  | 5.30 | O=C1C(=Cc2c(Br)[nH]c3ccccc23)Oc2c1ccc(O)c2O
20 |  | 5.30 | CN(c1ccccc1)c1cccc2c1c(/C=C1\Oc3cc(O)cc(O)c3C1=O)cn2C
21 |  | 5.30 | O=C1/C(=C/c2c[nH]c3ccc(Cl)cc23)Oc2c1ccc(O)c2O
22 | 6.69 | 5.50 | COc1ccc2c(c1)c(C=C1Oc3c(ccc(O)c3O)C1=O)c(C)n2CCCCN1CCN(CCO)CC1
23 | 6.31 | 5.35 | COc1ccc2c(c1)c(C=C1Oc3cccc(O)c3C1=O)c(C)n2CCN1CCN(C)CC1
24 | 8.02 | 7.09 | COc1ccc2[nH]c(CCn3ccnc3)c(/C=C3\Oc4cc(O)cc(O)c4C3=O)c2c1
25 | 7.32 | 5.72 | COc1cc(/C=C/CC2CCNCC2)c2[nH]cc(/C=C3\Oc4cc(O)ccc4C3=O)c2c1
26 | 5.64 | 5.31 | O=C1C(=Cc2c(-c3ccccc3)n(CCN3CCCCC3)c3ccccc23)Oc2cc(O)cc(O)c21
27 |  | 5.30 | COc1cc(-c2ccncc2)c2c(c1)c(/C=C1\Oc3cc(O)ccc3C1=O)cn2CCCC#N
28 | 6.64 | 6.02 | COc1ccc2c(c1)c(C=C1Oc3c(ccc(O)c3O)C1=O)c(C)n2CCCCN1CCOCC1
29 | 5.91 | 5.64 | CN(C)Cc1ccc(-c2ccc(-c3c(/C=C4\Oc5cc(O)cc(O)c5C4=O)c4ccccc4n3C)cc2)cc1
30 |  | 5.30 | COc1ccc(-c2cccc3c2c(/C=C2\Oc4cc(O)cc(O)c4C2=O)cn3C)cn1
31 | 6.32 | 5.40 | COc1ccc2c(c1)c(C=C1Oc3cccc(O)c3C1=O)c(C)n2CCN1CCN(CCO)CC1
32 | 6.47 | 5.38 | COc1ccc2c(c1)c(C=C1Oc3c(ccc(O)c3O)C1=O)c(C)n2CCCCN1CCN(C)CC1
33 |  | 5.30 | COc1ccc2c(c1)c(/C=C1\Oc3c(ccc(O)c3C)C1=O)c(C)n2CCCN(C)C
34 | 5.48 | 5.71 | Cn1cc(/C=C2\Oc3cc(O)cc(O)c3C2=O)c2c(Br)cccc21
35 | 6.20 | 5.13 | COC(=O)Nc1ccc2c(c1)C(=O)/C(=C/c1cn(CCN3CCN(C)CC3)c3ccc(OC)cc13)O2
